{
  "source": "the supplement of paper PMC10307832",
  "assay_in_all_cases": "relative viability (nuclei count vs DMSO), 5 days (fraction); higher = more cells survive",
  "key": {"[1]": {"compound": "C1=CC(=CC=C1NC(=S)NNC2=C(C=C(C=C2[N+](=O)[O-])C(F)(F)F)[N+](=O)[O-])F [Kobe2602] + CC(=O)Nc1cccc(-n2c(=O)n(C3CC3)c(=O)c3c(Nc4ccc(I)cc4F)n(C)c(=O)c(C)c32)c1 [Trametinib] (partner 0.02 µM)", "method_in_brief": "(§1)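 One day after seeding in 1536-well plates, lung cancer cell lines were dosed by pin tool. Dosing was either single-drug or a fixed anchor-drug dose plus five library-drug doses (not always all listed) in √10 steps. After 5 days, nuclei were stained in one fix-and-stain step and counted on 4× images, and relative viability is the nuclei count of treated wells over that of vehicle wells, given as the median of duplicate plates.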"}, "[2]": {"compound": "C1=CC(=CC=C1NC(=S)NNC2=C(C=C(C=C2[N+](=O)[O-])C(F)(F)F)[N+](=O)[O-])F [Kobe2602] + Cc1nc(NC(=O)N2CCC[C@H]2C(N)=O)sc1-c1ccnc(C(C)(C)C(F)(F)F)c1 [Alpelisib] (partner 2 µM)", "method_in_brief": "as §1"}, "[3]": {"compound": "C1=CC(=CC=C1NC(=S)NNC2=C(C=C(C=C2[N+](=O)[O-])C(F)(F)F)[N+](=O)[O-])F [Kobe2602] + Nc1nc2[nH]cc(CCc3ccc(C(=O)N[C@@H](CCC(=O)O)C(=O)O)cc3)c2c(=O)[nH]1 [Pemetrexed] (partner 0.2 µM)", "method_in_brief": "as §1"}, "[4]": {"compound": "O[C@@H](COc1cccc2ncccc12)CN1CCN([C@@H]2c3ccccc3[C@@H]3[C@H](c4ccccc42)C3(F)F)CC1 [Zosuquidar] + Nc1ncn([C@H]2C[C@H](O)[C@@H](CO)O2)c(=O)n1 [Decitabine] (partner 2 µM)", "method_in_brief": "as §1"}},
  "data": [
    {"cell line": "UMC-11", "values": [
      {"measurement": "relative viability", "setting": "[1]; first compound 0.2 µM", "value": 0.716},
      {"measurement": "relative viability", "setting": "[1]; first compound 0.6325 µM", "value": 0.683},
      {"measurement": "relative viability", "setting": "[1]; first compound 2 µM", "value": 0.751},
      {"measurement": "relative viability", "setting": "[1]; first compound 6.325 µM", "value": 0.747},
      {"measurement": "relative viability", "setting": "[1]; first compound 20 µM", "value": 0.668},
      {"measurement": "relative viability", "setting": "[2]; first compound 0.2 µM", "value": 1},
      {"measurement": "relative viability", "setting": "[2]; first compound 0.6325 µM", "value": 1.03},
      {"measurement": "relative viability", "setting": "[2]; first compound 2 µM", "value": 0.954},
      {"measurement": "relative viability", "setting": "[2]; first compound 6.325 µM", "value": 0.94},
      {"measurement": "relative viability", "setting": "[2]; first compound 20 µM", "value": 0.976},
      {"measurement": "relative viability", "setting": "[3]; first compound 0.2 µM", "value": 0.805},
      {"measurement": "relative viability", "setting": "[3]; first compound 0.6325 µM", "value": 0.83},
      {"measurement": "relative viability", "setting": "[3]; first compound 2 µM", "value": 0.822},
      {"measurement": "relative viability", "setting": "[3]; first compound 6.325 µM", "value": 0.788},
      {"measurement": "relative viability", "setting": "[3]; first compound 20 µM", "value": 0.779},
      {"measurement": "relative viability", "setting": "[4]; first compound 0.01 µM", "value": 0.567},
      {"measurement": "relative viability", "setting": "[4]; first compound 0.03162 µM", "value": 0.575},
      {"measurement": "relative viability", "setting": "[4]; first compound 0.1 µM", "value": 0.538},
      {"measurement": "relative viability", "setting": "[4]; first compound 0.3162 µM", "value": 0.666},
      {"measurement": "relative viability", "setting": "[4]; first compound 1 µM", "value": 0.59}
    ]}
  ]
}
